pEC50: −log10 of the molar value.
Columns and labels:
muscarinic receptors = molecular target: T1, muscarinic receptors (Cavia porcellus, UniProt H0W1Z3); experiment: Guinea pig ileum bioassay (isotonic contractions); conditions: for muscarinic agonist activity (in words) / pEC50 / potency compared with pilocarpine (in words): guinea pig ileum; for muscarinic agonist activity (in words) / pEC50: in vitro; for pEC50: read-out: ED50 (the source's name); for potency compared with pilocarpine (in words): relative to pilocarpine; for contractions of guinea pig ileum (FIG. 1), in words: single doses, 9, 10, 8 in increasing order of potency
T1 construct: a distal portion of guinea pig ileum was cut and a segment (1-1.5 cm) was tied at both ends; from tissue; host or cells: guinea pig distal ileum segment (isolated organ bath)
Procedure: Guinea Pig Ileum Bioassay. Briefly, a distal portion of guinea pig ileum was cut and a segment (1-1.5 cm) was tied at both ends. One end was connected to a force displacement transducer and the other end to the muscle holder in a 5 ml organ bath. […] After the tissue was allowed to equilibrate for 45-60 minutes, single doses of agonists were administered into the bath and isotonic contractions were recorded on a Grass polygraph.

[1] = cited from earlier work; for pharmacological activity (in words): products of lactone cleavage or epimerization of pilocarpine; for activity of pilocarpine analogues (in words): less active than pilocarpine
[2] = cited from earlier work

T1 sequence (H0W1Z3 1-590): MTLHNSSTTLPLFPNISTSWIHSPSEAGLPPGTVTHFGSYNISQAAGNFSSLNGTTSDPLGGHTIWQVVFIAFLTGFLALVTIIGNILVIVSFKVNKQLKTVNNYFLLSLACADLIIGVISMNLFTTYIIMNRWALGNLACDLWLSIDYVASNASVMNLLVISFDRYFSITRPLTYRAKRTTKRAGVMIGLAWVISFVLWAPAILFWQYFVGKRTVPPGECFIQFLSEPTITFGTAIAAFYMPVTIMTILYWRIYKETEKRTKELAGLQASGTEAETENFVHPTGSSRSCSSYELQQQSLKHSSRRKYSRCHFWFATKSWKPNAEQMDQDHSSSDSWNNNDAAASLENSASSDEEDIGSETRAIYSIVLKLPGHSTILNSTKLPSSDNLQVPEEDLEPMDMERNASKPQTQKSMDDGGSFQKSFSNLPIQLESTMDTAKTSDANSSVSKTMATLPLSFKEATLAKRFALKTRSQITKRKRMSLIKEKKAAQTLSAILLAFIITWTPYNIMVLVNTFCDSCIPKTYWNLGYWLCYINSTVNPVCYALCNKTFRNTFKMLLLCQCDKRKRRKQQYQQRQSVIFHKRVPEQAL

Row | Compound | muscarinic agonist activity (in words) (muscarinic receptors) | pEC50 (muscarinic receptors) | potency compared with pilocarpine (in words) (muscarinic receptors) | contractions of guinea pig ileum (FIG. 1), in words (muscarinic receptors) | further results
1 | CCN1C(=O)OC[C@@H]1Cc1cn(Cc2ccccc2)cn1 [Compound 6, (S)-3-Ethyl-4-(1,'-benzyl-4'-imidazolyl)methyl-2-oxazolidinone] | inactive | – | – | – | –
2 | CCN1C(=O)OC[C@@H]1Cc1c[n+](Cc2ccccc2)cn1C [Compound 7] | inactive | – | – | – | –
3 | CCN1C(=O)OC[C@@H]1Cc1cncn1C [Compound 8, (S)-3-Ethyl-4-(1'-methyl-5'-imidazolyl)methyl-2-oxazolidinone] | – | 6.00 | equipotent with pilocarpine | cholinergic muscarinic agonists | log concentration-response curves (in words) (muscarinic receptors; pilocarpine and 8 compared): parallel log concentration-response curves
4 | CCN1C(=O)OC[C@@H]1Cc1c[nH]cn1 [Compound 9, (S)-3-Ethyl-4-(4'-imidazolyl)methyl-2-oxazolidinone] | weaker muscarinic agonists | 3.74 | less active | cholinergic muscarinic agonists | –
5 | CCN1C(=O)OC[C@@H]1Cc1cn(C)cn1 [Compound 10, (S)-3-Ethyl-4-(1'-methyl-4'-imidazolyl)methyl-2-oxazolidinone] | weaker muscarinic agonists | 4.85 | less active | cholinergic muscarinic agonists | –
6 | CC[C@H]1C(=O)OC[C@@H]1Cc1cncn1C [isopilocarpine] | – | – | – | – | pharmacological activity (in words) [1]: essentially pharacologically inactive
7 | CC[C@@H]1C(=O)OC[C@@H]1Cc1cn(C)cn1 [neopilocarpine] | – | – | – | – | activity of pilocarpine analogues (in words) [1]: less active
8 | CC[C@H](C(=O)O)[C@H](CO)Cc1cncn1C [pilocarpic acid] | – | – | – | – | pharmacological activity (in words) [1]: essentially pharacologically inactive
9 | CC[C@@H]1C(=O)OC[C@@H]1Cc1cnc[nH]1 [pilocarpidine] | – | – | – | – | activity of pilocarpine analogues (in words) [1]: less active
10 | CC[C@@H]1C(=O)OC[C@@H]1Cc1cncn1C [pilocarpine] | – | – | – | – | duration of biological activity (in words) ([1]; due to hydrolytic cleavage of the lactone ring and/or epimerization): short duration of biological activity; side effects on administration for long periods (in words) ([2]; administered for long periods): without side effects; effect on intraocular pressure (in words) ([2]; narrow and wide angle glaucoma): decreases the intraocular pressure; duration of intraocular pressure lowering ([2]; topical miotic): about three
